Measurements as given in paper PMC5979327 (International Journal of Molecular Sciences, 2018).

Legend:
[1] = molecular target: T1, human histamine H3 receptor (hH3R) (Homo sapiens, UniProt Q9Y5N1); experiment: biochemical; type: binding
T1 construct: expressed in transfected cells; host or cells: HEK293T, transient PEI transfection with pcDNA3.1-hH3R; crude membranes

[2] = molecular target: T2, guinea pig H3 receptor (jejunum) (Cavia porcellus, UniProt Q9JI35); experiment: H3 antagonistic activity against H3 agonist-induced inhibition of the electrically evoked contraction of the guinea pig jejunum; type: biochemical; details: vs (R)-α-methylhistamine, Schild plot, dihydrogenoxolate salts, read-out: pA2 (sem) (converted)
T2 construct: Whole jejunum segments (2 cm) were prepared and mounted between two platinum electrodes; from tissue; host or cells: guinea pig jejunum (small intestine)
Description: All newly synthesized compounds were converted into their dihydrogenoxolates salts and in vitro evaluated as H3 receptor antagonists against H3 agonist-induced inhibition of the electrically evoked contraction of the guinea pig jejunum.
In the first step, all the obtained compounds were tested for their H3 antagonistic effects in vitro, following standard methods, using the electrically contracting guinea pig jejunum.
Male guinea pigs weighing 300–400 g were sacrificed, and a portion of the small intestine, 20–50 cm proximal to the ileocaecal valve (jejunum), was removed and placed in Krebs buffer (composition (mM) NaCl 118; KCl 5.6; MgSO4 1.18; CaCl2 2.5; NaH2PO4 1.28; NaHCO3 25; glucose 5.5; indomethacin (1 × 10^ℒ6mol/L)). Whole jejunum segments (2 cm) were prepared and mounted between two platinum electrodes (4 mm apart) in 20 mL Krebs buffer, continuously gassed with 95% O2:5% CO2, and maintained at 37 °C. the contractions were recorded isotonically under 1.0 g tension with a Hugo Sachs Hebel–Messvorsatz (Tl-2)/HF-modem (Hugo Sachs Elektronik, Hugstetten, Germany) connected to a pen recorder. The equilibration lasted for one hour with washings every 10 min. The muscle segments were then stimulated at a maximum between 15 and 20 Volts, continuously at a frequency of 0.1 Hz for a duration of 0.5 msec, with rectangular wave electrical pulses, delivered by a Grass Stimulator S-88 (Grass Instruments Co., Quincy, MA, USA). […] The antagonists were preincubated for 20 min during the stimulation, before the preparation were challenged with (R)-α-methylhistamine. Antagonist potency was determined by the construction of a Schild plot, using three different concentrations of the antagonist. The potency of an antagonist is expressed by its pA2 value. The pA2 values were compared with those indicating the potency of thioperamide.

[3] = system: cerebral amine neurotransmitter concentrations; experiment: Post-mortem brain tissue concentration of histamine, noradrenaline, dopamine and serotonin; type: in vivo, rat; details: rats, 3 mg/kg s.c. for 5 days; for histamine concentration in the hypothalamus: not statistically significant
Description: (§1) Following the behavioral study, the rats were sacrificed, and their brains were collected. From each brain, the cerebral cortex and hypothalamus were quickly dissected according to the Glowinski and Iversen method. The samples were immediately frozen in liquid nitrogen and kept at −70 °C until assayed.
The amine concentrations were expressed as ng/g wet weight (HA) or nmol/g wet weight (DA, NA, 5-HT).

MAO-B = experiment: Post-mortem cerebral MAO-B activity of treated rats (radioassay); type: in vivo, rat; details: cerebral cortex, s.c. 3 mg/kg/daily for 5 days, means ± SEM
Description: as §1
(§2) Monoamine oxidase A and B (EC 1.4.3.4; MAO A and B) activities were estimated in cerebral homogenates with radioassays, using serotonin (fine conc. 200 μM) and β-phenylethylamine (fine conc. 20 μM), as well as specific inhibitors—clorgyline and deprenyl (0.3 μM each), respectively.
(§3) The enzyme activities are expressed as pmol/min/mg protein. Protein concentration was analyzed according to Lowry’s method.

rats = experiment: Feeding behavior of rats after repeated subcutaneous administration; type: in vivo, rat; details: 3 mg/kg s.c. for 5 days; for amount of consumed food (food intake): versus pre-treatment period
Description: Finally, compound ADS-003 (1a) was subjected to an in vivo evaluation of its impact on brain neurotransmitter systems. This assessment concerned: • - The effects of the compound on the feeding behavior of rats after its repeated peripheral administration. […] The latter was accomplished by postmortem analyses of the brain tissues of the treated rats.
All animal experimental procedures were in accordance with EU directives and local ethical regulations. Male Wistar rats (260–300 g) were used. The animals were maintained under standard laboratory conditions (liquid and food available ad libitum, 12 h light–dark cycle). For feeding behavior examination, the rats were placed individually in metabolic cages (TecniplastGazzada, Buguggiate, Italy) and kept there throughout the entire test. Pharmacotherapy was preceded by a control period of 4 days aimed to determine the basal feed and water consumptions as well as urine excretion. The rats (n = 8 per group) were randomly given the H3R antagonists ADS-003 or Ciproxifan, the latter serving as a reference compound [40]. Control rats were treated with an equivalent volume of physiological saline. The compounds, dissolved in distilled water with DMSO (7%, v/v), were administered subcutaneously at a dose of 3 mg/kg of body mass for 5 consecutive days, always during the morning hours, following the record of feeding parameters. The dose of ADS-003 had been determined on the basis of a thorough characterization in vitro. The recorded volumes of consumed food are expressed in g or ml per 100 g of body weight or in ml per 24 h, respectively. The final results are given as means, with SEM calculated for each 24 h period, computed from a four-day (before treatment) or a five-day (treatment) monitoring

[4] = system: histamine N-methyltransferase (HNMT); experiment: Post-mortem cerebral histamine N-methyltransferase activity of treated rats (radioenzymatic); type: in vivo, rat; details: s.c. 3 mg/kg/daily for 5 days, means ± SEM; for HMNT activity, CTX: cerebral cortex; for HMNT activity, HTH: hypothalamus
[5] = molecular target: T3, rat histamine H3 receptor (rH3R) (Rattus norvegicus, UniProt Q9QYN8); experiment: [3H]-Nα-methylhistamine binding (saturation and displacement) to rat H3R in HEK-293T cell membranes
T3 construct: expressed in transfected cells; host or cells: HEK293T, transient PEI transfection with pcDNA3-rH3R; crude membranes

MAO-A = experiment: Post-mortem cerebral MAO-A activity of treated rats (radioassay); type: in vivo, rat; details: cerebral cortex, s.c. 3 mg/kg/daily for 5 days, means ± SEM
Description: as §1, §2, §3

H1-receptor = molecular target: T4, H1-receptor (Cavia porcellus, UniProt P31389); experiment: H1 antagonistic effects in vitro, guinea pig ileum, histamine as competing agonist; type: biochemical; details: read-out: pA2 (H1 antagonistic activity) (converted)
T4 construct: from tissue; host or cells: guinea pig ileum
Description: The pA2 values were calculated according to Arunlakshana and Schild [34].

[6] = compared with Ciproxifan; cited from earlier work

T2 sequence (Q9JI35 whole entry): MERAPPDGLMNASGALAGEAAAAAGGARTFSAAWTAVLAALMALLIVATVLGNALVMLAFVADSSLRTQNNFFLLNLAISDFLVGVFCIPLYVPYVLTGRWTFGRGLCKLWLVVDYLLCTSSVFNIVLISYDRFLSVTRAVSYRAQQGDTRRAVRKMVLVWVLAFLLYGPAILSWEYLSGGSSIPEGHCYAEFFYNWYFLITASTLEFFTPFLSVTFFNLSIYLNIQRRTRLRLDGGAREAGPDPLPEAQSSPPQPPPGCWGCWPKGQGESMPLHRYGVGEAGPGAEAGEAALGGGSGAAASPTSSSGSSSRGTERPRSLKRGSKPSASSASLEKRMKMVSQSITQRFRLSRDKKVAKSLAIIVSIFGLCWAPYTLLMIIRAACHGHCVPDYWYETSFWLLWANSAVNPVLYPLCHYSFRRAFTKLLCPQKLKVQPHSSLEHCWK
T4 sequence (P31389 whole entry): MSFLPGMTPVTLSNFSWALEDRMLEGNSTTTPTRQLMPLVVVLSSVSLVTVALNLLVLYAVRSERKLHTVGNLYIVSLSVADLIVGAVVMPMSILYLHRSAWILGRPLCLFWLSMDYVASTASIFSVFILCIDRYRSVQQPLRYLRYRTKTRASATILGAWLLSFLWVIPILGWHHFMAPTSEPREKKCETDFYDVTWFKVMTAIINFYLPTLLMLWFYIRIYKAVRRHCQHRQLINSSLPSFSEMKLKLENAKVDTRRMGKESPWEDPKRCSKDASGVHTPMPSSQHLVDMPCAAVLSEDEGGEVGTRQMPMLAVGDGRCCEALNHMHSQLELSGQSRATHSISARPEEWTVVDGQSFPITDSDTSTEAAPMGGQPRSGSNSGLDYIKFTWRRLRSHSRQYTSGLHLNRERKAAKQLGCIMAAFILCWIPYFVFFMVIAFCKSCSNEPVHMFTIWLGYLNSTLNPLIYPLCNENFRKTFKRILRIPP
T3 sequence (Q9QYN8 whole entry): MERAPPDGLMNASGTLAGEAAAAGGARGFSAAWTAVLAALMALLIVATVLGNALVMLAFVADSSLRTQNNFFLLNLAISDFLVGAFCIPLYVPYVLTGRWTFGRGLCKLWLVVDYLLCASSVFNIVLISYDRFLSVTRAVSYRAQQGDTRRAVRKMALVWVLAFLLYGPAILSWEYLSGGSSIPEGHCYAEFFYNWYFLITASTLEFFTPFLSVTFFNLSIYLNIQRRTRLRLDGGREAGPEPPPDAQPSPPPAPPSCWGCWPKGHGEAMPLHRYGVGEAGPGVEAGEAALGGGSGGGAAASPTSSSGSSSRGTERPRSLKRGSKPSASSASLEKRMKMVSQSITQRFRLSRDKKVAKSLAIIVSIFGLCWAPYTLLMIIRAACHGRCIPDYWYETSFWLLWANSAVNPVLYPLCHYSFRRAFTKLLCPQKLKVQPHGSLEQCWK
T1 sequence (Q9Y5N1 whole entry): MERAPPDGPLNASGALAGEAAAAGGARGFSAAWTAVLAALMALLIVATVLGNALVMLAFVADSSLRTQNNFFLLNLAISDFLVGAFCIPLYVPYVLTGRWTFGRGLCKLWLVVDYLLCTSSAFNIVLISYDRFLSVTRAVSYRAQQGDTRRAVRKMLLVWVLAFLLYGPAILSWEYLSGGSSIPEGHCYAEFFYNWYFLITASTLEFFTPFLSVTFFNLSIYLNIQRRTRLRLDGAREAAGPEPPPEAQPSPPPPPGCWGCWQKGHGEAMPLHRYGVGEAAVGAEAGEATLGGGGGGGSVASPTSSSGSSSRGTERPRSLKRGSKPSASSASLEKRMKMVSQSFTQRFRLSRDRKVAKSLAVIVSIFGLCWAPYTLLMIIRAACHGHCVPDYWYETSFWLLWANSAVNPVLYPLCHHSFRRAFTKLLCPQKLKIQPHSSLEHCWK

**Q.** Which Ki [1] does the source give for `CCCN(C)CCCCCOC1CCN(Cc2cc3ccccc3o2)CC1` [1a] here?
**A.** 251 nM

**Q.** What about the Kb [2] of the same compound?
**A.** 5.37 nM

**Q.** And the “histamine levels in the cerebral cortex” value [3]?
**A.** no changes

**Q.** And the “noradrenaline levels in the cerebral cortex” value [3]?
**A.** enhanced

**Q.** And the “histamine concentration in the hypothalamus” value [3]?
**A.** tendency to increase

**Q.** And the “MAO-B activity, CTX” value (MAO-B)?
**A.** 1065 ± 48 pmol/min/mg Protein

**Q.** What about the “crossing of the blood–brain barrier (suggested by the food intake results)” value (rats) of the same compound?
**A.** crosses the BBB

**Q.** What about the “amount of consumed food (food intake)” value (rats) of the same compound?
**A.** statistically significant reduction

**Q.** And the “HMNT activity, CTX” value [4]?
**A.** 44.41 ± 1.06 pmol/min/mg Protein

**Q.** What about the “HMNT activity, HTH” value [4] of the same compound?
**A.** 41.09 ± 0.80 pmol/min/mg Protein

**Q.** And the Ki [5]?
**A.** 12.6 nM

**Q.** And the “MAO-A activity, CTX” value (MAO-A)?
**A.** 1536 ± 50 pmol/min/mg Protein

**Q.** For `CCCN(C)CCCCCOC1CCN(CCc2cc3ccccc3o2)CC1` [1b, 5-{{1-[2-(1-Benzofuran-2-yl)ethyl]piperidin-4-yl}oxy}-N-methyl-N-propylpentan-1-amine], which Kb [2] is on record?
**A.** 55 nM

**Q.** What about the Kb (H1-receptor) of the same compound?
**A.** > 100000 nM

**Q.** With `CCCN(C)CCCCCOC1CCN(CCCc2cc3ccccc3o2)CC1` [1c, 5-{{1-[3-(1-Benzofuran-2-yl)propyl]piperidin-4-yl}oxy}-N-methyl-N-propylpentan-1-amine] as the compound, how does the Kb [2] read?
**A.** 77.6 nM

**Q.** Which Kb [2] does the source give for `CCCN(C)CCCCCOC1CCN(CCc2ccccc2)CC1` [1e, N-Methyl-5-[(1-phenethylpiperidin-4-yl)oxy]-N-propylpentan-1-amine] here?
**A.** 214 nM

**Q.** Which results are given for `CCCN(C)CCCCCOC1CCN(CCCc2ccccc2)CC1` [1f, N-Methyl-5-{[1-(3-phenylpropyl)piperidin-4-yl]oxy}-N-propylpentan-1-amine]?
**A.** Kb [2]: 30.9 nM; Kb (H1-receptor): > 100000 nM

**Q.** With `CCCN(C)CCCCCOCCCN(C)CCc1cc2ccccc2o1` [2b, 5-{3-{[2-(Benzofuran-2-yl)ethyl](methyl)amino}propoxy}-N-methyl-N-propylpentan-1-amine] as the compound, how does the Kb [2] read?
**A.** 479 nM

**Q.** With `CCCN(C)CCCCCOCCCN(C)CCCc1cc2ccccc2o1` [2c, 5-{3-{[3-(Benzofuran-2-yl)propyl](methyl)amino}propoxy}-N-methyl-N-propylpentan-1-amine] as the compound, how does the Kb [2] read?
**A.** 427 nM

**Q.** With `CCCN(C)CCCCCOCCCN(C)CCc1ccccc1` [2e, N-Methyl-5-{3-[methyl(phenethyl)amino]propoxy}-N-propylpentan-1-amine] as the compound, how does the Kb [2] read?
**A.** 191 nM

**Q.** With `CCCN(C)CCCCCOCCCN(C)CCCc1ccccc1` [2f, N-Methyl-5-(3-(methyl(3-phenylpropyl)amino)propoxy)-N-propylpentan-1-amine] as the compound, how does the Kb [2] read?
**A.** 162 nM

**Q.** Which results are given for `O=C(c1ccc(OCCCc2cnc[nH]2)cc1)C1CC1` [Ciproxifan, reference compound]?
**A.** histamine levels in the cerebral cortex [3]: no changes; noradrenaline levels in the cerebral cortex [3]: enhanced; histamine concentration in the hypothalamus [3]: tendency to increase; MAO-B activity, CTX (MAO-B): 1049 ± 56 pmol/min/mg Protein; amount of consumed food (food intake) (rats): statistically significant reduction; HMNT activity, CTX [4]: 46.90 ± 3.59 pmol/min/mg Protein; HMNT activity, HTH [4]: 51.76 ± 5.67 pmol/min/mg Protein; MAO-A activity, CTX (MAO-A): 1654 ± 31 pmol/min/mg Protein

**Q.** Which “bioavailability / brain penetration” value [6] does the source give for `S=C(NC1CCCCC1)N1CCC(c2cnc[nH]2)CC1` [Thioperamide] here?
**A.** lower bioavailability

**Q.** With `CNCCc1cnc[nH]1` [[^3H]-N^α-MH, [^3H]-N^α-methylhistamine, reference compound] as the compound, how does the Kd ([1]; read-out: KD (saturation binding)) read?
**A.** 0.9 ± 0.08 nM

**Q.** What about the Kd ([5]; rH3R, HEK-293T membranes) of the same compound?
**A.** 2.72 ± 0.34 nM
